Laboratory results as given in US9758538B2, “Pyrimidine derivatives” (PFIZER INC., priority 2015, dated 2017).

target: truncated PI3Kα (p110α/iSH2 p85α), PI3KA_Act (Homo sapiens (Human), UniProt P42336); experiment: PI3Kα biochemical kinase assay, fluorescence polarization format (PI3KA_Act); conditions: 0.5 nM p110α/iSH2 p85, 1 mM ATP, 30 μM PIP2, 15-min preincubation; Morrison equation fit; read-out: PI3KA_Act Ki
Protocol: Enzyme Production for Biochemical Assay: p110α-iSH2 p85α Complex (Full Length p110α and p85α iSH2)(“PI3KA Act”)
Gene encoding p110α subunit was subcloned into polyhedrine promoter while gene encoding p85α niSH2 domains was subcloned into p10 promoter. […] Recombinant baculovirus was generated using Bac-to-Bac protocol (Life Technologies, Carlsbad, Calif.). Large scale expression was conducted in Sf21 (Life Technologies, Carlsbad, Calif.) cells at a multiplicity of infection (“MOI”)=1 for 48 hours. Cells were lyzed in 50 mM Tris pH 8.0, 250 mM NaCl, 5% glycerol, 0.25 mM TCEP, and 20 mM imidazole. The p110α-niSH2 p85α complex was purified from clarified supernatant using Immobilized Metalo Affinity Chromatography (“IMAC”). The protein was eluted from the column using 50 mM Tris pH 8.0, 200 mM NaCl, 0.25 mM TCEP, and 200 mM imidazole. Following elution p110α-niSH2 p85α complex was dialyzed against 4 liters of 50 mM Tris pH 8.0, 200 mM NaCl, 0.25 mM TCEP, and 40 mM imidazole in the presence of PreScission Protease (1:70 molar ratio of Protease to Protein) and TEV protease (1:40 molar ratio protease to protein) for 16 hours at 4° C. The protein was further purified using reverse IMAC to remove cleaved histidine tag and contaminants captured during initial IMAC purification. The mixture of p110α-iSH2 p85α complex and cleaved nSH2 was recovered in reverse IMAC 40 mM imidazole flow through and 60 mM imidazole wash fractions. Those fractions were pulled together and loaded on Superdex 200 26/60 SEC column equilibrated in 25 mM Tris, pH 8.0, 100 mM NaCl, 2% glycerol, and 2 mM TCEP.
The enzymatic reactions were conducted in 50 μL volumes in 96-well plates. […] The reactions were incubated for 30 min at room temperature, stopped with EDTA pH 8 (10 mM final concentration). […] The plate was shaken for 30 minutes and fluorescence polarization values were measured on an LJL Analyst HT plate reader (Molecular Devices, Sunnyvale, Calif.).

Sequence of truncated PI3Kα (p110α/iSH2 p85α), PI3KA_Act (P42336 whole entry, the tested form may be a part): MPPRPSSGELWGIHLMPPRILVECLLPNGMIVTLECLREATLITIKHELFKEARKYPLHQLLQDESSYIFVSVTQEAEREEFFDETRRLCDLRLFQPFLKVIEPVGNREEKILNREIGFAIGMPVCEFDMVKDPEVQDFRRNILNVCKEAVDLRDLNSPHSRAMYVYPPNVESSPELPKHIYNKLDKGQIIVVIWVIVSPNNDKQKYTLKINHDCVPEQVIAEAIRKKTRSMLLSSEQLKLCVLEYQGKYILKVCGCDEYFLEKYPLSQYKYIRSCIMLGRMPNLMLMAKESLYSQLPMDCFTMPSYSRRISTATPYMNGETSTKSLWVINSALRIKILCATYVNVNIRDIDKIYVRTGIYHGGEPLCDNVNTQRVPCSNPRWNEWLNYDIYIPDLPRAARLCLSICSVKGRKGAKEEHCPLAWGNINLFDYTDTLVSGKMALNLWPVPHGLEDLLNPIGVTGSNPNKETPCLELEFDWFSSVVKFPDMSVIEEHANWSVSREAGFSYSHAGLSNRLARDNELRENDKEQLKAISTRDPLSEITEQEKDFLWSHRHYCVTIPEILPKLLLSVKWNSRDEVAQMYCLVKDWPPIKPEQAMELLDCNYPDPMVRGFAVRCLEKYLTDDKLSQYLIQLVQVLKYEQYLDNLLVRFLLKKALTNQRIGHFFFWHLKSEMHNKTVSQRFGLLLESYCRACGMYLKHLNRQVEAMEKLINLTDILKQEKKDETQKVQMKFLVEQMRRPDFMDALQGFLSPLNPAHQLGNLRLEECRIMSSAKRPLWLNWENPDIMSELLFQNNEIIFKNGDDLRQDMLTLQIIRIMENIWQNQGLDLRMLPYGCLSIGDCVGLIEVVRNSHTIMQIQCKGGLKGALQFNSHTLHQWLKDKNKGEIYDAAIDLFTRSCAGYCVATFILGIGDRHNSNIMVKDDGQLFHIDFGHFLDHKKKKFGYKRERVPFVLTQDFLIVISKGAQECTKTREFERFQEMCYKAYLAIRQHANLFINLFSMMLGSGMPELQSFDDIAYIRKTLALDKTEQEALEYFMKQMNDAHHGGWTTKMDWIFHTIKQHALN

First: COC(=O)N1CCC[C@@](CO)(Nc2nc(N3CCOCC3)nc(-c3cnc(N)nc3)c2F)C1 [Example 155, methyl (3R)-3-{[2′-amino-5-fluoro-2-(morpholin-4-yl)-4,5′-bipyrimidin-6-yl]amino}-3-(hydroxymethyl)piperidine-1-carboxylate]
Second: CCOC(=O)N1CC[C@](CO)(Nc2nc(N3CCOCC3)nc(-c3cnc(N)nc3)c2F)C1 [Example 69, ethyl (3S)-3-{[2′-amino-5-fluoro-2-(morpholin-4-yl)-4,5′-bipyrimidin-6-yl]amino}-3-(hydroxymethyl)pyrrolidine-1-carboxylate]
The Ki of the first is 20-fold higher: 3.07 nM for the first, 0.15 nM for the second. The second binds more tightly here.

`C[C@H]1COCCN1c1nc(N[C@@]2(CO)CCN(C(=O)C3CC3)C2)c(F)c(-c2cnc(N)nc2)n1` [Example 120, [(3S)-3-({2′-amino-5-fluoro-2-[(3S)-3-methylmorpholin-4-yl]-4,5′-bipyrimidin-6-yl}amino)-3-(hydroxymethyl)pyrrolidin-1-yl](cyclopropyl)methanone] and `C[C@H]1COCCN1c1nc(N[C@@]2(CO)CCN(C(=O)OC3CC3)C2)c(F)c(-c2cnc(N)nc2)n1` [Example 117, cyclopropyl (3S)-3-({2′-amino-5-fluoro-2-[(3S)-3-methylmorpholin-4-yl]-4,5′-bipyrimidin-6-yl}amino)-3-(hydroxymethyl)pyrrolidine-1-carboxylate] cannot be ordered by Ki: less than 0.018 nM for the first, less than 0.018 nM for the second.

Going from `CC(C)(C)OC(=O)N1CCCC(CO)(Nc2cc(-c3cnc(N)nc3)nc(N3CCOCC3)n2)C1` (stereo not shown) [Example 123, tert-butyl 3-{[2′-amino-2-(morpholin-4-yl)-4,5′-bipyrimidin-6-yl]amino}-3-(hydroxymethyl)piperidine-1-carboxylate] to `CC[C@@]1(Nc2cc(-c3cnc(N)nc3)nc(N3CCOCC3)n2)CCN(C(=O)OC(C)(C)C)C1` [Example 37, tert-butyl (3R)-3-{[2′-amino-2-(morpholin-4-yl)-4,5′-bipyrimidin-6-yl]amino}-3-ethylpyrrolidine-1-carboxylate], the Ki falls from 1.7 nM to 0.725 nM (2.3-fold).

Going from `Cc1ncc(-c2cc(N[C@@]3(CO)CCN(C(=O)OC(C)(C)C)C3)nc(N3CCOCC3)n2)cc1C#N` [Example 125, tert-butyl (3S)-3-{[6-(5-cyano-6-methylpyridin-3-yl)-2-(morpholin-4-yl)pyrimidin-4-yl]amino}-3-(hydroxymethyl)pyrrolidine-1-carboxylate] to `CC(C)(C)CC(=O)N1CC[C@](CO)(Nc2cc(-c3cnc(N)nc3)nc(N3CCOCC3)n2)C1` [Example 61, 1-[(3S)-3-{[2′-amino-2-(morpholin-4-yl)-4,5′-bipyrimidin-6-yl]amino}-3-(hydroxymethyl)pyrrolidin-1-yl]-3,3-dimethylbutan-1-one], the Ki falls from 118 nM to 0.054 nM (2200-fold). The second binds more tightly here.

First: CC(=O)N1CC[C@@](CO)(Nc2cc(-c3cnc(N)nc3)nc(N3CCOCC3)n2)C1 [Example 31, 1-[(3R)-3-{[2′-amino-2-(morpholin-4-yl)-4,5′-bipyrimidin-6-yl]amino}-3-(hydroxymethyl)pyrrolidin-1-yl]ethanone]
Second: CC(=O)N1CC(CO)(Nc2cc(-c3cnc(N)nc3)nc(N3CCOCC3)n2)C1 [Example 42, 1-[3-{[2′-amino-2-(morpholin-4-yl)-4,5′-bipyrimidin-6-yl]amino}-3-(hydroxymethyl)azetidin-1-yl]ethanone]
The Ki of the first is 3.3-fold higher: 2.13 nM for the first, 0.651 nM for the second. The second binds more tightly here.

Compared with `COC(=O)N1CC[C@](CO)(Nc2cc(-c3cnc(N)nc3)nc(N3CCOCC3)n2)C1` [Example 34, methyl (3S)-3-{[2′-amino-2-(morpholin-4-yl)-4,5′-bipyrimidin-6-yl]amino}-3-(hydroxymethyl)pyrrolidine-1-carboxylate], `Nc1ncc(-c2cc(N[C@@]3(CO)CCN(C(=O)OC4CC4)C3)nc(N3CCOCC3)n2)cn1` [Example 93, cyclopropyl (3S)-3-{[2′-amino-2-(morpholin-4-yl)-4,5′-bipyrimidin-6-yl]amino}-3-(hydroxymethyl)pyrrolidine-1-carboxylate] is lower in Ki: 0.019 nM for the first, less than 0.018 nM for the second. The second binds more tightly here.

First: CCOC(=O)N1CC[C@@](CC)(Nc2cc(-c3cnc(N)nc3)nc(N3CCOCC3)n2)C1 [Example 95, ethyl (3R)-3-{[2′-amino-2-(morpholin-4-yl)-4,5′-bipyrimidin-6-yl]amino}-3-ethylpyrrolidine-1-carboxylate]
Second: CCOC(=O)N1CC[C@](COC(C)=O)(Nc2cc(-c3cnc(N)nc3)nc(N3CCOCC3)n2)C1 [Example 113, ethyl (3S)-3-[(acetyloxy)methyl]-3-{[2′-amino-2-(morpholin-4-yl)-4,5′-bipyrimidin-6-yl]amino}pyrrolidine-1-carboxylate]
The Ki of the first is 7.8-fold lower: 0.412 nM for the first, 3.23 nM for the second. The first binds more tightly here.

Compared with `COC(=O)N1CC[C@](CO)(Nc2cc(-c3cnc(N)nc3C(F)(F)F)nc(N3CCOCC3)n2)C1` [Example 58, methyl (3S)-3-{[2′-amino-2-(morpholin-4-yl)-4′-(trifluoromethyl)-4,5′-bipyrimidin-6-yl]amino}-3-(hydroxymethyl)pyrrolidine-1-carboxylate], `CC(C)(C)NC(=O)N1CC[C@](CO)(Nc2cc(-c3cnc(N)nc3)nc(N3CCOCC3)n2)C1` [Example 48, (3S)-3-{[2′-amino-2-(morpholin-4-yl)-4,5′-bipyrimidin-6-yl]amino}-N-tert-butyl-3-(hydroxymethyl)pyrrolidine-1-carboxamide] is 3.6-fold higher in Ki: 0.2 nM for the first, 0.714 nM for the second.

`Nc1ncc(-c2cc(N[C@@]3(CO)CCN(C(=O)c4ccccn4)C3)nc(N3CCOCC3)n2)cn1` [Example 63, [(3S)-3-{[2′-amino-2-(morpholin-4-yl)-4,5′-bipyrimidin-6-yl]amino}-3-(hydroxymethyl)pyrrolidin-1-yl](pyridin-2-yl)methanone] and `Nc1ncc(-c2cc(N[C@@]3(CO)CCN(C(=O)c4ncccn4)C3)nc(N3CCOCC3)n2)cn1` [Example 87, [(3S)-3-{[2′-amino-2-(morpholin-4-yl)-4,5′-bipyrimidin-6-yl]amino}-3-(hydroxymethyl)pyrrolidin-1-yl](pyrimidin-2-yl)methanone] are within 1.5-fold of each other in Ki: 0.062 nM for the first, 0.085 nM for the second.

First: Nc1ncc(-c2cc(N[C@@]3(CO)CCN(CC(F)F)C3)nc(N3CCOCC3)n2)cn1 [Example 67, [(3S)-3-{[2′-amino-2-(morpholin-4-yl)-4,5′-bipyrimidin-6-yl]amino}-1-(2,2-difluoroethyl)pyrrolidin-3-yl]methanol]
Second: Nc1ncc(-c2nc(N3CCOCC3)nc(N[C@@]3(CO)CCN(C(=O)OC4CC4)C3)c2F)cn1 [Example 101, cyclopropyl (3S)-3-{[2′-amino-5-fluoro-2-(morpholin-4-yl)-4,5′-bipyrimidin-6-yl]amino}-3-(hydroxymethyl)pyrrolidine-1-carboxylate]
The Ki of the first is 22-fold higher: 1.52 nM for the first, 0.068 nM for the second.

Going from `CC(C)(C)OC(=O)N1CC[C@](CO)(Nc2nc(-c3cnc(N)nc3)nc(N3CCOCC3)n2)C1` [Example 39, tert-butyl (3S)-3-{[4-(2-aminopyrimidin-5-yl)-6-(morpholin-4-yl)-1,3,5-triazin-2-yl]amino}-3-(hydroxymethyl)pyrrolidine-1-carboxylate] to `C[C@H]1COCCN1c1nc(N[C@@]2(C)CCN(C(=O)OC(C)(C)C)C2)cc(-c2cnc(N)nc2)n1` [Example 19, tert-butyl (3S)-3-({2′-amino-2-[(3S)-3-methylmorpholin-4-yl]-4,5′-bipyrimidin-6-yl}amino)-3-methylpyrrolidine-1-carboxylate], the Ki rises from 0.105 nM to 0.158 nM (1.5-fold).
